Source: patent US20250197377A1, “NOVEL PHARMACEUTICAL SALTS AND POLYMORPHIC FORMS OF AN ERBB AND BTK INHIBITOR” (DIZAL (JIANGSU) PHARMACEUTICAL CO., LTD., priority 2021, published 2025)
Values after ≈ are worked out from the molar mass of the structure shown. Values joined by “and” are separate entries in the source; they are usually repeats but may differ in a detail not shown here. Identical values can stand only once. Like-named read-outs stand apart in the source and are kept apart here.

Experiments:
[1] = Form A and Form B inter-conversion study (competitive slurry, XRPD); format: physicochemical
Description: Competitive slurry experiments were conducted to evaluate the relative stability of Form A and Form B. Inter-conversion study was performed at room temperature and 50° C. using single and binary solvents listed in the Table 1 below. About 80 mg (100 mg for 50° C.) of Form A and Form B (1:1, w/w) was weighed into sample vials (8 mL) and then 3 mL (2 mL for 50° C.) of solvents were added to each vial. The obtained suspensions were kept stirring for 7 days at room temperature and 50° C., then filtered at specified time. The wet and dried solids were analyzed by XRPD (dried in vacuum oven at 45° C.).
Form B was dominant in tested solvent systems with water activity below 0.15 at room temperature (24˜27° C.). […] Pure Form A and Form B were stable during drying process (50° C., vacuum) for at least 2 days.

[2] = Water activity study of Form A and Form B (slurry, XRPD); format: physicochemical; conditions: 24~27° C. (before dry)
Description: To study the effects of water on the stability of Form A and Form B, slurry experiments in the systems with different water activity were carried out. Form A or Form B was suspended separately in different water activity systems (Table 4). […] Residual solids were filtered and then dried in the vacuum oven at 45° C. for 8-24 hours. Dry solids were characterized by XRPD.

[3] = Dynamic moisture sorption analysis (DVS); format: physicochemical
Description: DVS was determined using DVS Advantage-1 or Intrinsic (SMS, UK). The sample was tested at a targeted RH of 10 to 90% full cycle in step mode. The analysis was performed in 10% RH increments. Equilibrium:60 min RH (%) measurement points: First cycle: 0, 10, 20, 30, 40, 50, 60, 70, 80, 90. Second cycle: 90, 80, 70, 60, 50, 40, 30, 20, 10, 0.

[4] = Solubility in organic solvents and water; format: physicochemical; conditions: r.t.
[5] = Solubility in bio-relevant media; format: physicochemical
[6] = molecular target: T1, EGFR 19Del (Homo sapiens, UniProt P00533, DEL746-750); experiment: In vitro cell based assay, PD IC50, PC-9
T1 construct: Form A and B in vitro cell based assay; endogenous in cells; host or cells: PC-9

[7] = molecular target: T2, EGFR L858R/T790M (Homo sapiens, UniProt P00533, L858R/T790M); experiment: In vitro cell based assay, PD IC50, NCI-H1975
T2 construct: Form A and B in vitro cell based assay; endogenous in cells; host or cells: NCI-H1975

[8] = molecular target: T3, EGFR H773_V774insNPH (Homo sapiens, UniProt P00533, INS773NPH); experiment: In vitro cell based assay, PD IC50, Ba/F3_NPH
T3 construct: expressed in transfected cells; host or cells: Ba/F3 (Ba/F3_NPH)

[9] = molecular target: T4, EGFR Wildtype (Homo sapiens, UniProt P00533); experiment: In vitro cell based assay, PD IC50, A431
T4 construct: Form A and B in vitro cell based assay; endogenous in cells; host or cells: A431

[10] = molecular target: T5, HER2 A775_G776insYVMA (Homo sapiens, UniProt P04626, INS775YVMA); experiment: In vitro cell based assay, PD IC50, 3T3_YVMA
T5 construct: expressed in transfected cells; host or cells: 3T3 (3T3_YVMA)

[11] = tested on: PC-9; experiment: In vitro cell based assay, anti-proliferation GI50, PC-9; conditions: Homo sapiens, PC-9, EGFR 19Del
[12] = tested on: NCI-H1975; experiment: In vitro cell based assay, anti-proliferation GI50, NCI-H1975; conditions: Homo sapiens, NCI-H1975, EGFR L858R/T790M
[13] = tested on: Ba/F3_NPH; experiment: In vitro cell based assay, anti-proliferation GI50, Ba/F3_NPH; conditions: EGFR H773_V774insNPH
[14] = tested on: A431; experiment: In vitro cell based assay, anti-proliferation GI50, A431; conditions: Homo sapiens, A-431, EGFR Wildtype
[15] = tested on: 3T3_YVMA; experiment: In vitro cell based assay, anti-proliferation GI50, 3T3_YVMA; conditions: HER2 A775_G776insYVMA
[16] = PK study of Form A and Form B in Rat; format: in vivo; conditions: rat, in vivo; for AUC(0-t): read-out: Mean AUC0~48; for half-life: read-out: Mean t1/2 (converted); for Tmax: read-out: Median Tmax
[17] = PK study of Form A and Form B in Dog; format: in vivo; conditions: 10 mg/kg

T4 sequence (P00533 25-1210): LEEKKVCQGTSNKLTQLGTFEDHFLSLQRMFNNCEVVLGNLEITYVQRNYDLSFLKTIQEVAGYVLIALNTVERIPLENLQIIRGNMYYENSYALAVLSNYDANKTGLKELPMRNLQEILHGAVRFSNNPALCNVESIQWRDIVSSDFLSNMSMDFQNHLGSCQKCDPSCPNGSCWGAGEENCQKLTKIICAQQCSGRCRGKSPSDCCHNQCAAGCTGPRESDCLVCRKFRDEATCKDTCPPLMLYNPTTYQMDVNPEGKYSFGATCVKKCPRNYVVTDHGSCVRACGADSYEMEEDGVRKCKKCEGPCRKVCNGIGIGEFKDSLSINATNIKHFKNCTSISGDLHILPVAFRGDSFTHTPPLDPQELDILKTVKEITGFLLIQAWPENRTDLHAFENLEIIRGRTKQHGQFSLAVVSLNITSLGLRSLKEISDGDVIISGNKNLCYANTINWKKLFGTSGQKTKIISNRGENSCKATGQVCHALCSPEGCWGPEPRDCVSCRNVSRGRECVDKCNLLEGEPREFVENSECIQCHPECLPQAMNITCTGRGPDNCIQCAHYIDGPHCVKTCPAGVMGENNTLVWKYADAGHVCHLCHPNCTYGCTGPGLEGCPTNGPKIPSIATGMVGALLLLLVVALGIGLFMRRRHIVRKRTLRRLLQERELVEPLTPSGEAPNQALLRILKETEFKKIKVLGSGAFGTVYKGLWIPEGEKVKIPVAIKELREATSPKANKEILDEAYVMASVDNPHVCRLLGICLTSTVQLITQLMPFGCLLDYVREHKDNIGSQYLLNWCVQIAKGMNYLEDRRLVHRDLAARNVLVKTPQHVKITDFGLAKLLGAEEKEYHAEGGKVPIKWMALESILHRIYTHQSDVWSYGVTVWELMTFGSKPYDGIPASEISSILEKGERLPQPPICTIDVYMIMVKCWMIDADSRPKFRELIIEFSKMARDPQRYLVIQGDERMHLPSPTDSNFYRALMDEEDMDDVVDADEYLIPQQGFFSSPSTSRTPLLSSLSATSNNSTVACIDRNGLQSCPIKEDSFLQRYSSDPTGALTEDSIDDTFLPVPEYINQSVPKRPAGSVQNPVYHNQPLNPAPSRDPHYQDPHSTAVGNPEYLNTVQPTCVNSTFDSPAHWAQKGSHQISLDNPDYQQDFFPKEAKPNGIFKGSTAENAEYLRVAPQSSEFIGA
T2 sequence (P00533 25-1210 T790M/L858R): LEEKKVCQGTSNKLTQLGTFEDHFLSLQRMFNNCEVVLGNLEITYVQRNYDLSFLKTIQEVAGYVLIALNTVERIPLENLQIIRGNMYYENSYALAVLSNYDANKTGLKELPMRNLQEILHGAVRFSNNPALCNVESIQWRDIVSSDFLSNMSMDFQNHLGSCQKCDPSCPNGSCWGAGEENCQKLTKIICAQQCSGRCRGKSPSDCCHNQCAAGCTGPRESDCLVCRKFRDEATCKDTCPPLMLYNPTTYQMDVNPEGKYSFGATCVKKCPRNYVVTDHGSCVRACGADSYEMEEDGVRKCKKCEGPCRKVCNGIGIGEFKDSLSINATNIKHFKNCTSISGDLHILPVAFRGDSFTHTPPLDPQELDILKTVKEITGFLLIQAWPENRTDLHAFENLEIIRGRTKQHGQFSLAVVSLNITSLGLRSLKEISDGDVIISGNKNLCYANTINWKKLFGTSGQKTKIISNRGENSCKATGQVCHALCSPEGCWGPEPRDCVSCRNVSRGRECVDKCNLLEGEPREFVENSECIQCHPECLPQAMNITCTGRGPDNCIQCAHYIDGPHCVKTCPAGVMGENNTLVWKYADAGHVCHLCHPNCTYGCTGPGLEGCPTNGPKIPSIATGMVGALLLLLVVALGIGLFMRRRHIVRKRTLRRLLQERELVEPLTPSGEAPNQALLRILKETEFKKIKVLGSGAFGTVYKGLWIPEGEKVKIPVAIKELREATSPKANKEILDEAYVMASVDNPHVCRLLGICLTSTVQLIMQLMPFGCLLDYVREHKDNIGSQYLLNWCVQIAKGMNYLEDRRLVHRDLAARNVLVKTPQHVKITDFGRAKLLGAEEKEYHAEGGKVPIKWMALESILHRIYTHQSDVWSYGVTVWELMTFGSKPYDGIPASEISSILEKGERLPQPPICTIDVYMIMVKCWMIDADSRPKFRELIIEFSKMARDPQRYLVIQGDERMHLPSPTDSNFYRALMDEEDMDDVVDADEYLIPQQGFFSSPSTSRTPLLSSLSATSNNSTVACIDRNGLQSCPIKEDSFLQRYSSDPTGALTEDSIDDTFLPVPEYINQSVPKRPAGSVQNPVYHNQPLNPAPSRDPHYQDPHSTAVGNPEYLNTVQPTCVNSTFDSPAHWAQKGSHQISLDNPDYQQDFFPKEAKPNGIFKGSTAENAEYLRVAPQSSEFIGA
T5 sequence (P04626 with tags, fused parts or gaps INS775YVMA): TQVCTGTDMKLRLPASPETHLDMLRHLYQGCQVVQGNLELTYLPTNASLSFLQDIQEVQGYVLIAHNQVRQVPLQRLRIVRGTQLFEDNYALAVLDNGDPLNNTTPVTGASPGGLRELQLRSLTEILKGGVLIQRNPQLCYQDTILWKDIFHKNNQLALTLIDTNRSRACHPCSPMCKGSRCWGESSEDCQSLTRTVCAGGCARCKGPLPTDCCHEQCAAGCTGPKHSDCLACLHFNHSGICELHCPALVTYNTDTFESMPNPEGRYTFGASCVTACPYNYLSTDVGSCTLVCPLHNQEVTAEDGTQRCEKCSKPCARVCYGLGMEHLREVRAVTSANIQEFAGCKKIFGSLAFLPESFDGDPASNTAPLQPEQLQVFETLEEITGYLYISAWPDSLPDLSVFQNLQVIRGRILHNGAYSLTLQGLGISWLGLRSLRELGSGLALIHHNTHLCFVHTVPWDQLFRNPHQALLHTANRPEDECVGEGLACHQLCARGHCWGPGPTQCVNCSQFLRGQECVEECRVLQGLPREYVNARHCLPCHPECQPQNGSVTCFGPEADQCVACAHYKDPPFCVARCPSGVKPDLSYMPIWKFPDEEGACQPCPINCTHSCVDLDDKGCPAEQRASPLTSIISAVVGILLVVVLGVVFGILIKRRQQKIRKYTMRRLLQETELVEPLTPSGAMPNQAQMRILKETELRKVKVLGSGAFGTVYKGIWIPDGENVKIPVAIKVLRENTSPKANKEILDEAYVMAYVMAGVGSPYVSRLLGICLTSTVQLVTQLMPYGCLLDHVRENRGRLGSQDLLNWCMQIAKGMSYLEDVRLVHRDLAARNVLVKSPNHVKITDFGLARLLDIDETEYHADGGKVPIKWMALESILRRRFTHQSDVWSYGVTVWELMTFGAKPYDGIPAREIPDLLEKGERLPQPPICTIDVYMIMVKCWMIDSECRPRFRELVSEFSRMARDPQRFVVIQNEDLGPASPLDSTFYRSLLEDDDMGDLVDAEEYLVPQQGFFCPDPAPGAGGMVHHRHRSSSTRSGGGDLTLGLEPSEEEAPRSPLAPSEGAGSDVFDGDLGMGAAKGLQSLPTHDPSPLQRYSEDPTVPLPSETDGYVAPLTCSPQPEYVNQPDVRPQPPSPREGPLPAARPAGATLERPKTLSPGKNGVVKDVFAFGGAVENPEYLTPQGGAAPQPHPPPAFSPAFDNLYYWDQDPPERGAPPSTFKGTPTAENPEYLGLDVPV
T1 sequence (P00533 with tags, fused parts or gaps DEL746-750): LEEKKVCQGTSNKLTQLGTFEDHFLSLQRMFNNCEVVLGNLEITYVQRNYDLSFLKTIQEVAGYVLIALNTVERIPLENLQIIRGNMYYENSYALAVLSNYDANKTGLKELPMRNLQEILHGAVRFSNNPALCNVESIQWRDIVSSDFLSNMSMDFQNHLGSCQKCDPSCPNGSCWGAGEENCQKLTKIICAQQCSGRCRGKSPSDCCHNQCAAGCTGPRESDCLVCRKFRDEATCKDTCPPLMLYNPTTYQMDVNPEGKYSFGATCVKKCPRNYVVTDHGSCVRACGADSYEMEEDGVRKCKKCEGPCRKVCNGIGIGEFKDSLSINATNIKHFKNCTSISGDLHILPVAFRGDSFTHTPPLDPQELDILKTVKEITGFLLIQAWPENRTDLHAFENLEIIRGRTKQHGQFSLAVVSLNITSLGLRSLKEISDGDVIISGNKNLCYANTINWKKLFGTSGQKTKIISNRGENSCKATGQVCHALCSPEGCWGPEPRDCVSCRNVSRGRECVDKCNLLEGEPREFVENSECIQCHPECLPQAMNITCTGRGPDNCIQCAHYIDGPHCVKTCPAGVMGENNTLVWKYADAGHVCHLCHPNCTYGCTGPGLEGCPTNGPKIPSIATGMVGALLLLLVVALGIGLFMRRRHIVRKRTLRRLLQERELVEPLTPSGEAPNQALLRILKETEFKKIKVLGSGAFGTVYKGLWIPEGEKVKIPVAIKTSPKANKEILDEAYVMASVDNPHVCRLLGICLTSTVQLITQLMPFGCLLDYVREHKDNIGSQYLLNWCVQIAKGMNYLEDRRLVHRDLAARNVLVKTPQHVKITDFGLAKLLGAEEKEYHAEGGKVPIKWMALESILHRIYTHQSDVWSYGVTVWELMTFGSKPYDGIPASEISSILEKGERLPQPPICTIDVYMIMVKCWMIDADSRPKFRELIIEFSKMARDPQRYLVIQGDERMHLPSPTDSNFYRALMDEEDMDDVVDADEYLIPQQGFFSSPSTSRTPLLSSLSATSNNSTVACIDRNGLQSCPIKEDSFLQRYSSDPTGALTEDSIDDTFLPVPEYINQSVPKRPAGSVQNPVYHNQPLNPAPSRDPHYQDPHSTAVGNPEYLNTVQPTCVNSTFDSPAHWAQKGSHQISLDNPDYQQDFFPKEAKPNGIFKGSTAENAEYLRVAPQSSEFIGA

Stability of pure form during drying process ([1]; 50° C., vacuum, at least 2 days): stable
Form change during the drying process ([1]; mixture of Form A and Form B): converted into Form B
XRPD results of slurry in different water activity solvent ([2]; 0% water/acetone, water activity 0, 1 d): Form A
XRPD results of slurry in different water activity solvent ([2]; 0% water/acetone, water activity 0, 3 d): Form A
XRPD results of slurry in different water activity solvent ([2]; 0% water/acetone, water activity 0, 7 d): Form A + B
XRPD results of slurry in different water activity solvent ([2]; 3% water/acetone, water activity 0.312, 3 d): Form A
XRPD results of slurry in different water activity solvent ([2]; 3% water/acetone, water activity 0.312, 7 d): Form A + B
XRPD results of slurry in different water activity solvent ([2]; 30% water/acetone, water activity 0.747, 1 d): Form A
XRPD results of slurry in different water activity solvent ([2]; 30% water/acetone, water activity 0.747, 3 d): Form A
XRPD results of slurry in different water activity solvent ([2]; 30% water/acetone, water activity 0.747, 7 d): Form A + B
XRPD results of slurry in different water activity solvent ([2]; water, 7 d): Form A
DVS (ΔW %, 80% RH) [3]: 0.63%
Solubility ([4]; Acetonitrile): S < 2.14 mg/ml
Solubility ([4]; EtOH, organic solvent or mixture, EtOH, read-out: Solubility): 13400 to 17800 µg/mL (≈ 22.9 to 30.5 mM)
Solubility ([4]; Ethyl acetate): S < 2.16 mg/ml
Solubility ([4]; MTBE, organic solvent or mixture, MTBE, read-out: Solubility): < 1820 µg/mL
Solubility ([4]; MeOH, organic solvent or mixture, MeOH, read-out: Solubility): 24800 to 49500 µg/mL (≈ 42.4 to 84.7 mM)
Solubility ([4]; THF, organic solvent or mixture, THF, read-out: Solubility): 17200 to 25800 µg/mL (≈ 29.4 to 44.1 mM)
Solubility ([4]; acetone, organic solvent or mixture, Acetone, read-out: Solubility): 5120 to 5690 µg/mL (≈ 8.77 to 9.74 mM)
Solubility ([4]; isopropanol, organic solvent or mixture, Isopropanol, read-out: Solubility): 4450 to 4940 µg/mL (≈ 7.62 to 8.46 mM)
Solubility ([4]; water, read-out: Solubility): < 2040 µg/mL
Solubility ([5]; FaSSIF, 0.5 h): 170 µg/mL (≈ 0.291 mM)
Solubility ([5]; FaSSIF, 2 h): 190 µg/mL (≈ 0.325 mM)
Solubility ([5]; FaSSIF, 24 h): 260 µg/mL (≈ 0.445 mM)
Solubility ([5]; FeSSIF, 0.5 h): 4600 µg/mL (≈ 7.88 mM)
Solubility ([5]; FeSSIF, 2 h): 6880 µg/mL (≈ 11.8 mM)
Solubility ([5]; FeSSIF, 24 h): 11640 µg/mL (≈ 19.9 mM)
Solubility ([5]; SGF, 0.5 h): 23120 µg/mL (≈ 39.6 mM)
Solubility ([5]; SGF, 2 h): 24350 µg/mL (≈ 41.7 mM)
Solubility ([5]; SGF, 24 h): 24410 µg/mL (≈ 41.8 mM)
Solubility ([5]; SIF, 0.5 h): 29 µg/mL (≈ 0.0496 mM)
Solubility ([5]; SIF, 2 h): 40 µg/mL (≈ 0.0685 mM)
Solubility ([5]; SIF, 24 h): 40 µg/mL (≈ 0.0685 mM)
IC50 [6]: 2.13 nM
IC50 [7]: 2.1 nM
IC50 [8]: 32.4 nM
IC50 [9]: 43.1 nM
IC50 [10]: 3.84 nM
GI50 [11]: 4.76 nM
GI50 [12]: 2.22 nM
GI50 [13]: 58.2 nM
GI50 [14]: 42.2 nM
Cmax ([16]; 25 mg/kg): 199 ng/mL
AUC(0-t) ([16]; 25 mg/kg): 2130 ng·h/mL
half-life ([16]; 25 mg/kg): 4.4 h
Tmax ([16]; 25 mg/kg): 4 h
Cmax ([16]; 75 mg/kg): 506 ng/mL
AUC(0-t) ([16]; 75 mg/kg): 6870 ng·h/mL
half-life ([16]; 75 mg/kg): 6 h
Tmax ([16]; 75 mg/kg): 4 h
SMILES: C=CC(=O)Nc1cc(Nc2nccc(Nc3cc(Cl)c(F)cc3C(C)(C)O)n2)c(OC)cc1N1CC[C@@H](N(C)C)C1 [Form A, (R)-N-(5-((4-((5-chloro-4-fluoro-2-(2-hydroxypropan-2-yl)phenyl)amino)pyrimidin-2-yl)amino)-2-(3-(dimethylamino)pyrrolidin-1-yl)-4-methoxyphenyl)acrylamide]
GI50 [15]: 44.3 nM
AUC0-24 h ([17]; Female (individual animals)): 2.30 hr*μM/(mg/kg) and 1.80 hr*μM/(mg/kg)
AUC0-24 h ([17]; Male (individual animals)): 3.47 hr*μM/(mg/kg) and 5.47 hr*μM/(mg/kg)
